For one experiment, the target named is human FPR1 (Homo sapiens (Human), UniProt P21462). The experiment can be described thus: FPR1 cyclic adenosine monophosphate (cAMP) assay. The class given is cell-based. To be noted: CHO cells overexpressing human FPR1; forskolin 10 µM; inhibition of cAMP production; read-out: hFPR1 cAMP EC50. The procedure, abridged:
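Human FPR1-expressing CHO cells were used at 4,000 per well, with compound at 0.020 nM–100 µM in 1% DMSO. Potency came from a 4-parameter logistic fit.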

The next experiment concerns the target human FPR2 (Homo sapiens (Human), UniProt P25090). The experiment can be described thus: FPR2 cyclic adenosine monophosphate (cAMP) assay. The class given is cell-based. The conditions noted are these: CHO cells overexpressing human FPR2; forskolin 5 µM; inhibition of cAMP production; read-out: hFPR2 cAMP2 EC50. The procedure, abridged:
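Inhibition of forskolin-driven (5 µM) cAMP, with 200 µM IBMX, measured in human FPR2-expressing CHO cells, 2,000 per well, 30 min at room temperature; compounds tested 0.020 nM to 100 µM in 1% DMSO. HTRF 665/590 ratio converted to cAMP via calibration curve, then 4-parameter fit.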

A value given as a limit tells only on which side of the number the result lay.

As a reminder, the EC50 is the concentration needed to bring the measured effect to its halfway point.

human FPR2, sequence (P25090 whole entry): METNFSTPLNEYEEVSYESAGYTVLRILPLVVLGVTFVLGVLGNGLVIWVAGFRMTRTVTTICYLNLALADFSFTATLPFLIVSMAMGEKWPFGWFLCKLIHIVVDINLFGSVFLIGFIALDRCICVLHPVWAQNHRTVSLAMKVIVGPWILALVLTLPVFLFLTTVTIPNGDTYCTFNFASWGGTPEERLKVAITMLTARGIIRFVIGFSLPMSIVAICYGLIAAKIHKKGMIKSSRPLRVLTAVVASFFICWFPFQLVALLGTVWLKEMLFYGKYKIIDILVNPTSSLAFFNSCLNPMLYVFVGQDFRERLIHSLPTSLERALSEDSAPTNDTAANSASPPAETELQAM
human FPR1, sequence (P21462 whole entry): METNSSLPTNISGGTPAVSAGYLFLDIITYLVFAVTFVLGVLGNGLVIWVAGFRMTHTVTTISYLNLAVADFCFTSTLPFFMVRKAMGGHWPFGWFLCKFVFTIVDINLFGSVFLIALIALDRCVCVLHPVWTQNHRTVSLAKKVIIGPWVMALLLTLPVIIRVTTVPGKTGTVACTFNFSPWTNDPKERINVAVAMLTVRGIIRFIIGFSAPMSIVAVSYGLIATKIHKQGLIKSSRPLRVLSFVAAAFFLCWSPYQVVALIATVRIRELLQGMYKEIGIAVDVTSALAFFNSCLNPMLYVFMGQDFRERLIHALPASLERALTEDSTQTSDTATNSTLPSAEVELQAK

For `CCn1cncc(N2C[C@@H](c3c(F)cc(OC)cc3F)[C@H](NC(=O)c3ccc(Cl)cc3)C2=O)c1=O` [Example 378], the EC50 is 3800 nM at human FPR1 and 4.6 nM on human FPR2.

In the case of `COc1cc(F)c([C@@H]2CN(c3c(C)ccn(CC(=O)N4CCOCC4)c3=O)C(=O)[C@H]2NC(=O)c2ccc(Cl)cc2)c(F)c1` [Example 379], the concentration for a half-maximal effect (EC50) at human FPR1 was 320 nM; at human FPR2, 2.6 nM.

Regarding `COc1ccc([C@@H]2CN(c3cccn(CC(OC)C(F)(F)F)c3=O)C(=O)[C@H]2NC(=O)c2ccc(Cl)cc2)c(F)c1` (stereo partly drawn) [Example 380], the EC50 at human FPR1 worked out at 3 nM; on human FPR2, 1.8 nM.

Turning to `COc1cc(F)c([C@@H]2CN(c3c(C)ccn(C(F)F)c3=O)C(=O)[C@H]2NC(=O)c2ccc(OC(F)F)cc2)c(F)c1` [Example 381], the EC50 stood at 10 nM at human FPR1 and 4 nM at human FPR2.

With `COc1ccc([C@@H]2CN(c3c(C)ccn(C(F)F)c3=O)C(=O)[C@H]2NC(=O)c2ccc(OC(F)(F)F)cc2)cc1` [Example 383], the EC50 at human FPR1 came to 2 nM; at human FPR2, 5.5 nM.

On to `COc1ccc([C@@H]2CN(c3c(C)ccn(C(F)F)c3=O)C(=O)[C@H]2NC(=O)c2ccc(OC(F)F)cc2)cc1` [Example 384], for which the EC50 on human FPR1 was 1 nM; at human FPR2 it was 1.9 nM.

With `COc1ccc([C@@H]2CN(c3c(C)ccn(CC4CC4)c3=O)C(=O)[C@H]2NC(=O)c2ccc(Cl)cc2)cc1` [Example 385], the EC50 was 1 nM on human FPR1 and 7.1 nM on human FPR2.

With `COc1ccc([C@@H]2CN(c3c(C)ccn(CCC(F)(F)F)c3=O)C(=O)[C@H]2NC(=O)c2ccc(Cl)cc2)cc1` [Example 386], the EC50 is 1 nM at human FPR1 and 2.4 nM at human FPR2.

With `COc1ccc([C@@H]2CN(c3c(C)ccn(CCC(F)(F)F)c3=O)C(=O)[C@H]2NC(=O)c2ccc(OC(F)F)cc2)cc1` [Example 387], the EC50 at human FPR1 was 1 nM; at human FPR2, 2.2 nM.

Consider `COCC(CO)n1ccc(C)c(N2C[C@@H](c3ccc(OC)cc3)[C@H](NC(=O)c3ccc(OC(F)F)cc3)C2=O)c1=O` (stereo partly drawn) [Example 389], for which the EC50 on human FPR1 and on human FPR2 was under 5 nM in each case.

Consider `CCN1CCC(N2C[C@@H](c3c(F)cc(OC)cc3F)[C@H](NC(=O)c3ccc(OC(F)F)cc3)C2=O)C1=O` (stereo partly drawn) [Example 390], for which the EC50 came out at 76 nM at human FPR1 and 4.8 nM at human FPR2.

As to `COc1ccc([C@@H]2CN(c3cccn(CC(C)O)c3=O)C(=O)[C@H]2NC(=O)c2ccc(Cl)cc2)cc1` (stereo partly drawn) [Example 391], the EC50 at human FPR1 was 36 nM; at human FPR2 it was 5.5 nM.

As to `COc1ccc([C@@H]2CN(c3cccn(CC(OC)C(F)(F)F)c3=O)C(=O)[C@H]2NC(=O)c2ccc(Cl)cc2)cc1` (stereo partly drawn) [Example 393], the EC50 on human FPR1 came out at 2 nM; on human FPR2, 2.4 nM.

For `COc1ccc([C@@H]2CN(c3c(C)ccn(CCO)c3=O)C(=O)[C@H]2NC(=O)c2ccc(Cl)cc2)c(F)c1` [Example 394], the EC50 on human FPR1 stood at 11 nM; on human FPR2, 1.9 nM.

On to `COc1ccc([C@@H]2CN(c3cccn(CC(C)OC)c3=O)C(=O)[C@H]2NC(=O)c2ccc(OC(F)(F)F)cc2)c(F)c1` (stereo partly drawn) [Example 395], for which the values for the EC50 at human FPR1 and at human FPR2 were 1 nM and 2.4 nM, respectively.

Turning to `COc1cc(F)c([C@@H]2CN(c3cccnc3OCCO)C(=O)[C@H]2NC(=O)c2ccc(OC(F)(F)F)cc2)c(F)c1` [Example 396], the EC50 at human FPR1 is 39 nM; at human FPR2 it was 9.5 nM.

`COCC(CO)n1cccc(N2C[C@@H](c3ccc(OC)cc3)[C@H](NC(=O)c3ccc(Cl)cc3)C2=O)c1=O` (stereo partly drawn) [Example 397]: the EC50 on human FPR1 amounted to 15 nM; on human FPR2, 2.7 nM.

As for `COCCn1nccc(N2C[C@@H](c3c(F)cc(OC)cc3F)[C@H](NC(=O)c3ccc(OC(F)F)cc3)C2=O)c1=O` [Example 398], the EC50 at human FPR1 was 11 nM; on human FPR2 it was 7.2 nM.

For the molecule `COc1ccc([C@@H]2CN(c3c(C)ccn(CCC(F)(F)F)c3=O)C(=O)[C@H]2NC(=O)c2ccc(Cl)cc2)c(F)c1` [Example 401], the EC50 at human FPR1 turned out to be 7 nM; on human FPR2 it was 3.7 nM.

For `COc1ccc([C@@H]2CN(c3c(C)ccn(CCC(F)(F)F)c3=O)C(=O)[C@H]2NC(=O)c2ccc(OC(F)F)cc2)c(F)c1` [Example 402], the EC50 stood at 3 nM at human FPR1 and 2.8 nM on human FPR2.

Regarding `COc1ccc([C@@H]2CN(c3cccn(CC(C)OC)c3=O)C(=O)[C@H]2NC(=O)c2ccc(OC(F)(F)F)cc2)cc1` (stereo partly drawn) [Example 405], the figures for the EC50 on human FPR1 and on human FPR2 were 2 nM and 4.7 nM, respectively.

Consider `COCC(CO)n1cccc(N2C[C@@H](c3ccc(Cl)cc3)[C@H](NC(=O)c3ccc(Cl)cc3)C2=O)c1=O` (stereo partly drawn) [Example 406], for which the EC50 on human FPR1 was determined as 9 nM; on human FPR2 it was 2.9 nM.

As to `COc1cc(F)c([C@H]2[C@H](NC(=O)c3ccc(OC(F)F)cc3)C(=O)N(c3cccn(CCO)c3=O)[C@@H]2C)c(F)c1` [Example 407], the results for the EC50 on human FPR1 and at human FPR2 were 640 nM and 7.8 nM, respectively.

For `COCCOc1ncccc1N1C[C@@H](c2c(F)cc(OC)cc2F)[C@H](NC(=O)c2ccc(OC(F)(F)F)cc2)C1=O` [Example 408], the values for the EC50 on human FPR1 and at human FPR2 were 9 nM and 3.5 nM, respectively.

Take `CC(O)Cn1cccc(N2C[C@@H](c3ccc(Cl)cc3)[C@H](NC(=O)c3ccc(OC(F)F)cc3)C2=O)c1=O` (stereo partly drawn) [Example 409]: the EC50 on human FPR1 came out at 36 nM; at human FPR2, 6.3 nM.

Consider `COCCNc1ccnc(N2C[C@@H](c3c(F)cc(OC)cc3F)[C@H](NC(=O)c3ccc(Cl)cc3)C2=O)c1C(F)(F)F` [Example 410], for which the EC50 at human FPR1 was 3300 nM; on human FPR2 it was 11.7 nM.

Regarding `COCC(CO)n1cccc(N2C[C@@H](c3ccc(OC)cc3)[C@H](NC(=O)c3ccc(Cl)cc3)C2=O)c1=O` (stereo partly drawn) [Example 411], the EC50 at human FPR1 amounted to 120 nM; at human FPR2, 2.6 nM.

Regarding `COCCOc1ncccc1N1C[C@@H](c2c(F)cc(OC)cc2F)[C@H](NC(=O)c2ccc(OC(F)F)cc2)C1=O` [Example 412], the EC50 on human FPR1 amounted to 93 nM; at human FPR2, 7.6 nM.

As for `COCCOc1ncccc1N1C[C@@H](c2c(F)cc(OC)cc2F)[C@H](NC(=O)c2ccc(Cl)cc2)C1=O` [Example 413], the EC50 on human FPR1 came out at 120 nM; at human FPR2 it was 0.6 nM.

As for `COCC(CO)n1cccc(N2C[C@@H](c3ccc(Cl)cc3)[C@H](NC(=O)c3ccc(Cl)cc3)C2=O)c1=O` (stereo partly drawn) [Example 414], the concentration for a half-maximal effect (EC50) was 19 nM at human FPR1 and 4.7 nM at human FPR2.

For `Cc1ccn(CC(F)F)c(=O)c1N1C[C@@H](c2ccc(Cl)cc2)[C@H](NC(=O)c2ccc(OC(F)F)cc2)C1=O` [Example 415], the EC50 is 3 nM at human FPR1 and 6.8 nM at human FPR2.

With `COc1ccc([C@@H]2CN(c3cccn(CC(OC)C(F)(F)F)c3=O)C(=O)[C@H]2NC(=O)c2ccc(OC(F)F)cc2)cc1` (stereo partly drawn) [Example 416], the EC50 on human FPR1 stood at 1 nM; on human FPR2 it was 1.7 nM.

On to `COc1cc(F)c([C@@H]2CN(c3cccn(CC(OC)C(F)(F)F)c3=O)C(=O)[C@H]2NC(=O)c2ccc(Cl)cc2)c(F)c1` (stereo partly drawn) [Example 417], for which the EC50 at human FPR1 came to 17 nM; at human FPR2, 2.9 nM.

Consider `COc1ccc([C@@H]2CN(c3cccn(CC(C)OC)c3=O)C(=O)[C@H]2NC(=O)c2ccc(OC(F)F)cc2)c(F)c1` (stereo partly drawn) [Example 418], for which the EC50 at human FPR1 stood at 4 nM; on human FPR2, 2.7 nM.

As for `COc1cc(F)c([C@@H]2CN(c3nccc(NCCO)c3C(F)(F)F)C(=O)[C@H]2NC(=O)c2ccc(Cl)cc2)c(F)c1` [Example 419], the EC50 was 110 nM at human FPR1 and 4.8 nM on human FPR2.

Consider `COc1cc(F)c([C@@H]2CN(c3nccc(N4CCOCC4)c3C(F)(F)F)C(=O)[C@H]2NC(=O)c2ccc(Cl)cc2)c(F)c1` [Example 420], for which the EC50 was 51 nM at human FPR1 and 7.3 nM at human FPR2.

In the case of `COc1cc(F)c([C@@H]2CN(c3c(C)ccn(CC(F)F)c3=O)C(=O)[C@H]2NC(=O)c2ccc(Cl)cc2)c(F)c1` [Example 421], the values for the EC50 on human FPR1 and at human FPR2 were 15 nM and 3.3 nM, respectively.

`COCCn1ccc(C)c(N2C[C@@H](c3c(F)cc(OC)cc3F)[C@H](NC(=O)c3ccc(Cl)cc3)C2=O)c1=O` [Example 422]: the EC50 is 3 nM on human FPR1 and 1.1 nM at human FPR2.

Regarding `COCCNc1ccnc(N2C[C@@H](c3c(F)cc(OC)cc3F)[C@H](NC(=O)c3ccc(Cl)cc3)C2=O)c1C(F)(F)F` [Example 423], the EC50 on human FPR1 is 1100 nM; at human FPR2, 4.7 nM.

As for `CC(O)Cn1cccc(N2C[C@@H](c3ccc(Cl)cc3)[C@H](NC(=O)c3ccc(Cl)cc3)C2=O)c1=O` (stereo partly drawn) [Example 424], the EC50 was determined as 11 nM at human FPR1 and 2.2 nM at human FPR2.

Take `COCC(CO)n1ccc(C)c(N2C[C@@H](c3c(F)cc(OC)cc3F)[C@H](NC(=O)c3ccc(OC(F)F)cc3)C2=O)c1=O` (stereo partly drawn) [Example 426]: the EC50 at human FPR1 stood at 4 nM; on human FPR2, 2.3 nM.

Regarding `COCC(CO)n1ccc(C)c(N2C[C@@H](c3c(F)cc(OC)cc3F)[C@H](NC(=O)c3ccc(OC(F)(F)F)cc3)C2=O)c1=O` (stereo partly drawn) [Example 427], the EC50 at human FPR1 was found to be 2 nM; on human FPR2, 4.4 nM.

Regarding `COCC(C(=O)N(C)C)n1cccc(N2C[C@@H](c3ccc(OC)cc3F)[C@H](NC(=O)c3ccc(OC(F)F)cc3)C2=O)c1=O` (stereo partly drawn) [Example 428], the EC50 at human FPR1 stood at 8 nM; at human FPR2, 9 nM.

As to `COc1cc(F)c([C@@H]2CN(c3c(C)ccn(CCC(F)(F)F)c3=O)C(=O)[C@H]2NC(=O)c2ccc(Cl)cc2)c(F)c1` [Example 430], the EC50 on human FPR1 is 5 nM; at human FPR2, 3.3 nM.

Regarding `COc1ccnc(N2C(=O)[C@@H](NC(=O)c3ccc(Cl)cc3)[C@H](c3c(F)cc(OC)cc3F)[C@@H]2C)c1` [Example 432], the EC50 worked out at 3800 nM at human FPR1 and 9.1 nM at human FPR2.

The values above are taken from patent publication US20230348426A1, “OXOPYRROLIDINE FPR2 AGONISTS” (Bristol-Myers Squibb Company, priority 2020, published 2023).
